Assay results as given in paper PMC5218480 (PLoS ONE, 2017).

Test system: MV-4-11 cells
Assay: Gene expression microarray analysis (Affymetrix PrimeView) and GSEA
Format: cell-based, human
Parameters: RFU PODN (11730768_x_at) / Fold change /veh PODN (11730768_x_at) / RFU LINC00158 (11744669_a_at) / Fold change /veh LINC00158 (11744669_a_at) / RFU DUSP10 (11751237_a_at) / Fold change /veh DUSP10 (11751237_a_at) / RFU ID3 (11757404_x_at) / Fold change /veh ID3 (11757404_x_at) / RFU PLEKHG5 (11737974_s_at) / Fold change /veh PLEKHG5 (11737974_s_at) / RFU LRRC4B (11730491_at) / Fold change /veh LRRC4B (11730491_at) / RFU GIMAP4 (11747438_a_at) / Fold change /veh GIMAP4 (11747438_a_at) / RFU KRT8 (11758183_x_at) / Fold change /veh KRT8 (11758183_x_at) / RFU CNN1 (11734310_a_at) / Fold change /veh CNN1 (11734310_a_at) / RFU VPS37D (11726825_at) / Fold change /veh VPS37D (11726825_at) / RFU C10orf10 (11716522_x_at) / Fold change /veh C10orf10 (11716522_x_at) / RFU KIR2DL2 /// KIR2DL4 /// KIR2DL5A /// KIR2DL5B /// KIR2DS1 /// KIR2DS2 /// KIR2DS3 /// KIR2DS4 /// KIR3DL3 /// KIR3DL3 /// KIR3DS1 (11738374_at) / Fold change /veh KIR2DL2 /// KIR2DL4 /// KIR2DL5A /// KIR2DL5B /// KIR2DS1 /// KIR2DS2 /// KIR2DS3 /// KIR2DS4 /// KIR3DL3 /// KIR3DL3 /// KIR3DS1 (11738374_at) / RFU C1QL1 (11718748_at) / Fold change /veh C1QL1 (11718748_at) / RFU TMPRSS4 (11747572_a_at) / Fold change /veh TMPRSS4 (11747572_a_at) / RFU HAMP (11756126_x_at) / Fold change /veh HAMP (11756126_x_at) / RFU RNFT2 (11725882_a_at) / Fold change /veh RNFT2 (11725882_a_at) / RFU NR4A2 (11747474_a_at) / Fold change /veh NR4A2 (11747474_a_at) / RFU ABCC12 (11746883_a_at) / Fold change /veh ABCC12 (11746883_a_at) / RFU TMEM136 (11760407_x_at) / Fold change /veh TMEM136 (11760407_x_at) / RFU CLDN22 /// WWC2 (11732394_at) / Fold change /veh CLDN22 /// WWC2 (11732394_at) / RFU HLA-DPB1 (11760878_x_at) / Fold change /veh HLA-DPB1 (11760878_x_at) / RFU SPINT1 (11716480_a_at) / Fold change /veh SPINT1 (11716480_a_at) / RFU GAP43 (11754022_s_at) / Fold change /veh GAP43 (11754022_s_at) / RFU A4GNT (11735810_at) / Fold change /veh A4GNT (11735810_at) / RFU PRB3 (11715151_x_at) / Fold change /veh PRB3 (11715151_x_at) / RFU TUBB4B (11761932_at) / Fold change /veh TUBB4B (11761932_at) / RFU CAPN14 (11732068_a_at) / Fold change /veh CAPN14 (11732068_a_at) / RFU TMCC2 (11721928_a_at) / Fold change /veh TMCC2 (11721928_a_at) / RFU IRGQ (11745062_a_at) / Fold change /veh IRGQ (11745062_a_at) / RFU FAM174B (11720279_a_at) / Fold change /veh FAM174B (11720279_a_at) / RFU TMPRSS4 (11748680_a_at) / Fold change /veh TMPRSS4 (11748680_a_at) / RFU FAM212B (11763350_a_at) / Fold change /veh FAM212B (11763350_a_at) / RFU PLEKHG5 (11743358_a_at) / Fold change /veh PLEKHG5 (11743358_a_at) / RFU ZSCAN30 (11745921_a_at) / Fold change /veh ZSCAN30 (11745921_a_at) / RFU CMKLR1 (11741424_a_at) / Fold change /veh CMKLR1 (11741424_a_at) / RFU LOC101060620 /// MAPK8IP1 (11723275_at) / Fold change /veh LOC101060620 /// MAPK8IP1 (11723275_at) / RFU SPTSSB (11747773_x_at) / Fold change /veh SPTSSB (11747773_x_at) / RFU PRSS12 (11739890_at) / Fold change /veh PRSS12 (11739890_at) / RFU BIN1 (11741810_x_at) / Fold change /veh BIN1 (11741810_x_at) / RFU WNT11 (11732464_a_at) / Fold change /veh WNT11 (11732464_a_at) / RFU C10orf10 (11716521_a_at) / Fold change /veh C10orf10 (11716521_a_at) / RFU C5orf56 (11738089_at) / Fold change /veh C5orf56 (11738089_at) / RFU CYB561 (11721691_x_at) / Fold change /veh CYB561 (11721691_x_at) / RFU ANKRD19P (11752326_a_at) / Fold change /veh ANKRD19P (11752326_a_at) / RFU OR2T12 /// OR2T33 /// OR2T8 (11738714_s_at) / Fold change /veh OR2T12 /// OR2T33 /// OR2T8 (11738714_s_at) / RFU VCAN (11748164_a_at) / Fold change /veh VCAN (11748164_a_at) / RFU JSRP1 (11732532_at) / Fold change /veh JSRP1 (11732532_at) / RFU KRTAP10-11 (11738290_x_at) / Fold change /veh KRTAP10-11 (11738290_x_at) / RFU MYO3A (11730013_a_at) / Fold change /veh MYO3A (11730013_a_at) / RFU EBF3 (11725865_a_at) / Fold change /veh EBF3 (11725865_a_at) / RFU CAMK2N1 (11719241_x_at) / Fold change /veh CAMK2N1 (11719241_x_at) / RFU C5orf56 (11738088_a_at) / Fold change /veh C5orf56 (11738088_a_at) / RFU OLFML3 (11715873_a_at) / Fold change /veh OLFML3 (11715873_a_at) / RFU LOC100653217 /// NTM (11731650_a_at) / Fold change /veh LOC100653217 /// NTM (11731650_a_at) / RFU MAPK11 (11762145_a_at) / Fold change /veh MAPK11 (11762145_a_at) / RFU FIZ1 (11724087_x_at) / Fold change /veh FIZ1 (11724087_x_at) / RFU OASL (11726364_x_at) / Fold change /veh OASL (11726364_x_at) / RFU SOX15 (11748057_x_at) / Fold change /veh SOX15 (11748057_x_at) / RFU CD79A (11719716_a_at) / Fold change /veh CD79A (11719716_a_at) / RFU HIST1H1D (11736915_at) / Fold change /veh HIST1H1D (11736915_at) / RFU CASKIN2 (11723855_a_at) / Fold change /veh CASKIN2 (11723855_a_at) / RFU LOC730098 (11760151_x_at) / Fold change /veh LOC730098 (11760151_x_at) / RFU OR4N2 (11742367_at) / Fold change /veh OR4N2 (11742367_at) / RFU PRRT2 (11749266_a_at) / Fold change /veh PRRT2 (11749266_a_at) / RFU SNX32 (11753110_a_at) / Fold change /veh SNX32 (11753110_a_at) / RFU CDHR5 (11726645_a_at) / Fold change /veh CDHR5 (11726645_a_at) / RFU RCAN1 (11760418_a_at) / Fold change /veh RCAN1 (11760418_a_at) / RFU FAM167A (11723789_a_at) / Fold change /veh FAM167A (11723789_a_at) / RFU FAM26E (11764081_at) / Fold change /veh FAM26E (11764081_at) / RFU ISYNA1 (11749810_s_at) / Fold change /veh ISYNA1 (11749810_s_at) / RFU ACY1 (11761880_at) / Fold change /veh ACY1 (11761880_at) / RFU 11764098_at / Fold change /veh 11764098_at / RFU SAMD14 (11745864_x_at) / Fold change /veh SAMD14 (11745864_x_at) / RFU NPB (11741838_a_at) / Fold change /veh NPB (11741838_a_at) / RFU TMPRSS6 (11731388_a_at) / Fold change /veh TMPRSS6 (11731388_a_at) / RFU KRTAP10-2 (11738614_at) / Fold change /veh KRTAP10-2 (11738614_at) / RFU ARHGAP8 /// PRR5-ARHGAP8 (11727945_x_at) / Fold change /veh ARHGAP8 /// PRR5-ARHGAP8 (11727945_x_at) / RFU KRTAP5-7 /// NADSYN1 (11734609_at) / Fold change /veh KRTAP5-7 /// NADSYN1 (11734609_at) / RFU RASL12 (11751679_a_at) / Fold change /veh RASL12 (11751679_a_at) / RFU CDKN2B (11736163_a_at) / Fold change /veh CDKN2B (11736163_a_at) / RFU PRF1 (11729649_at) / Fold change /veh PRF1 (11729649_at) / RFU, ZNF638 /// ZNF638-IT1 / Fold change vs veh, ZNF638 /// ZNF638-IT1 / RFU, PANK3 / Fold change vs veh, PANK3 / RFU, SH3YL1 / Fold change vs veh, SH3YL1 / RFU, ZEB2 / Fold change vs veh, ZEB2 / RFU, NRIP1 / Fold change vs veh, NRIP1 / RFU, PTTG1IP / Fold change vs veh, PTTG1IP / RFU, CAPN2 / Fold change vs veh, CAPN2 / RFU, MED14 / Fold change vs veh, MED14 / RFU, SNORA58 / Fold change vs veh, SNORA58 / RFU, C1orf63 / Fold change vs veh, C1orf63 / RFU, LRRFIP1 / Fold change vs veh, LRRFIP1 / RFU, NDUFAF7 / Fold change vs veh, NDUFAF7 / RFU, SLC12A2 / Fold change vs veh, SLC12A2 / RFU, IBTK / Fold change vs veh, IBTK / RFU, ESF1 / Fold change vs veh, ESF1 / Fold change vs veh, TMEM50B / RFU, TAOK1 / Fold change vs veh, TAOK1 / RFU, ACBD3 / Fold change vs veh, ACBD3 / RFU, TMA16 / Fold change vs veh, TMA16 / RFU, RWDD3 / Fold change vs veh, RWDD3 / RFU, BCAT1 / Fold change vs veh, BCAT1 / RFU, EDEM3 / Fold change vs veh, EDEM3 / RFU, TMEM33 / Fold change vs veh, TMEM33 / RFU, WDR75 / Fold change vs veh, WDR75 / RFU, AHCTF1 / Fold change vs veh, AHCTF1 / RFU, TFRC / Fold change vs veh, TFRC / RFU, ZDHHC17 / Fold change vs veh, ZDHHC17 / RFU, NOM1 / Fold change vs veh, NOM1 / RFU, ARL8B / Fold change vs veh, ARL8B / RFU, ZBTB11 / Fold change vs veh, ZBTB11 / RFU, TAMM41 / Fold change vs veh, TAMM41 / RFU, KIAA1704 /// LOC100996395 / Fold change vs veh, KIAA1704 /// LOC100996395 / RFU, ING1 / Fold change vs veh, ING1 / RFU, TRMT61B / Fold change vs veh, TRMT61B / RFU, FUBP3 / Fold change vs veh, FUBP3 / RFU, TP53 / Fold change vs veh, TP53 / RFU, TNKS2 / Fold change vs veh, TNKS2 / RFU, ZFP14 / Fold change vs veh, ZFP14 / RFU, ACTR2 / Fold change vs veh, ACTR2 / RFU, PPP3R1 / Fold change vs veh, PPP3R1 / RFU, PIK3R1 / Fold change vs veh, PIK3R1 / RFU, HNRNPA1 / Fold change vs veh, HNRNPA1 / RFU, RNF170 / Fold change vs veh, RNF170 / RFU, ZNF28 / Fold change vs veh, ZNF28 / RFU, RNGTT / Fold change vs veh, RNGTT / RFU, OGT / Fold change vs veh, OGT / RFU, BRD1 / Fold change vs veh, BRD1 / RFU, MARS / Fold change vs veh, MARS / RFU, ZNF655 / Fold change vs veh, ZNF655 / RFU, FAHD1 / Fold change vs veh, FAHD1 / RFU, BDP1 / Fold change vs veh, BDP1 / RFU, LRRCC1 / Fold change vs veh, LRRCC1 / RFU, ARID1A / Fold change vs veh, ARID1A / RFU, ZNF146 / Fold change vs veh, ZNF146 / RFU, ZNF330 / Fold change vs veh, ZNF330 / RFU, GPN3 / Fold change vs veh, GPN3 / RFU, C9orf123 / Fold change vs veh, C9orf123 / RFU, N4BP2L2 / Fold change vs veh, N4BP2L2 / RFU, ARFIP1 / Fold change vs veh, ARFIP1 / RFU, FAM179B / Fold change vs veh, FAM179B / RFU, BCL10 / Fold change vs veh, BCL10 / RFU, UHRF1BP1L / Fold change vs veh, UHRF1BP1L / RFU, BET1 / Fold change vs veh, BET1 / RFU, CNOT2 / Fold change vs veh, CNOT2 / RFU, ZNF268 / Fold change vs veh, ZNF268 / Fold change vs veh, ZNF507 / RFU, DGCR2 / Fold change vs veh, DGCR2 / RFU, WDSUB1 / Fold change vs veh, WDSUB1 / Fold change vs veh, HSP90B1 /// MIR3652 / RFU, ADSS / Fold change vs veh, ADSS / RFU, GK / Fold change vs veh, GK / RFU, ZNF148 / Fold change vs veh, ZNF148 / RFU, TAF9 / Fold change vs veh, TAF9 / RFU, SLC1A5 / Fold change vs veh, SLC1A5 / RFU, SLMO2 / Fold change vs veh, SLMO2 / RFU, ABCC4 / Fold change vs veh, ABCC4 / RFU, LOC101060439 /// RAP1B / Fold change vs veh, LOC101060439 /// RAP1B / RFU, RFX7 / Fold change vs veh, RFX7 / RFU, GTPBP10 / Fold change vs veh, GTPBP10 / RFU, CNEP1R1 / Fold change vs veh, CNEP1R1 / RFU, BIVM-ERCC5 /// ERCC5 / Fold change vs veh, BIVM-ERCC5 /// ERCC5 / RFU, ILF3 / Fold change vs veh, ILF3 / RFU 11762660_at / Fold change /veh 11762660_at / RFU VCAN (11757783_s_at) / Fold change /veh VCAN (11757783_s_at) / RFU DDX43 (11728927_at) / Fold change /veh DDX43 (11728927_at) / RFU KRT8 (11758188_x_at) / Fold change /veh KRT8 (11758188_x_at) / RFU NKD1 (11759106_at) / Fold change /veh NKD1 (11759106_at) / RFU SRD5A1 (11742802_a_at) / Fold change /veh SRD5A1 (11742802_a_at) / RFU TPSAB1 /// TPSB2 (11721975_s_at) / Fold change /veh TPSAB1 /// TPSB2 (11721975_s_at) / RFU GSTM3 (11746129_a_at) / Fold change /veh GSTM3 (11746129_a_at) / RFU IL23R (11737362_x_at) / Fold change /veh IL23R (11737362_x_at) / RFU TMEM51 (11727254_a_at) / Fold change /veh TMEM51 (11727254_a_at) / RFU PIWIL2 (11732686_x_at) / Fold change /veh PIWIL2 (11732686_x_at) / RFU ORM1 (11744905_x_at) / Fold change /veh ORM1 (11744905_x_at) / RFU CCDC152 (11743942_at) / Fold change /veh CCDC152 (11743942_at) / RFU ECM1 (11717891_a_at) / Fold change /veh ECM1 (11717891_a_at) / RFU IL23R (11748794_a_at) / Fold change /veh IL23R (11748794_a_at) / RFU TNFAIP8L3 (11732012_x_at) / Fold change /veh TNFAIP8L3 (11732012_x_at) / RFU MBOAT4 (11741988_at) / Fold change /veh MBOAT4 (11741988_at) / RFU 11764193_at / Fold change /veh 11764193_at / RFU TMEM53 (11763286_at) / Fold change /veh TMEM53 (11763286_at) / RFU MAGEB2 (11727129_at) / Fold change /veh MAGEB2 (11727129_at) / RFU TMEM200A (11744735_a_at) / Fold change /veh TMEM200A (11744735_a_at) / RFU CCDC152 (11751479_a_at) / Fold change /veh CCDC152 (11751479_a_at) / RFU FAM211A (11726209_a_at) / Fold change /veh FAM211A (11726209_a_at) / RFU RGS16 (11746705_a_at) / Fold change /veh RGS16 (11746705_a_at) / RFU VCAN (11755009_s_at) / Fold change /veh VCAN (11755009_s_at) / RFU RHOB (11743442_s_at) / Fold change /veh RHOB (11743442_s_at) / RFU RGS16 (11720943_a_at) / Fold change /veh RGS16 (11720943_a_at) / RFU RGS16 (11720944_at) / Fold change /veh RGS16 (11720944_at) / RFU, VPS4B / Fold change vs veh, VPS4B / RFU, CREB1 / Fold change vs veh, CREB1 / RFU, DNAJC13 / Fold change vs veh, DNAJC13 / RFU, GNAQ / Fold change vs veh, GNAQ / RFU, CDK5R1 / Fold change vs veh, CDK5R1 / RFU, ZRANB3 / Fold change vs veh, ZRANB3 / RFU, CUL4A / Fold change vs veh, CUL4A / RFU, CCNY / Fold change vs veh, CCNY / RFU, UFL1 / Fold change vs veh, UFL1 / RFU, COG3 / Fold change vs veh, COG3 / RFU, DIAPH2 / Fold change vs veh, DIAPH2 / RFU, SKA2 / Fold change vs veh, SKA2 / RFU, AFF3 / Fold change vs veh, AFF3 / RFU, LMF1 / Fold change vs veh, LMF1 / RFU, IPO11 / Fold change vs veh, IPO11 / RFU, DFFB / Fold change vs veh, DFFB / RFU, FOXP1 / Fold change vs veh, FOXP1 / RFU, CARD8 / Fold change vs veh, CARD8 / RFU, STRN3 / Fold change vs veh, STRN3 / RFU, ADK / Fold change vs veh, ADK / RFU, RASSF2 / Fold change vs veh, RASSF2 / RFU, WIPF1 / Fold change vs veh, WIPF1 / RFU, LARP1B / Fold change vs veh, LARP1B / RFU, RASA1 / Fold change vs veh, RASA1 / RFU, RB1 / Fold change vs veh, RB1 / RFU, PPFIA1 / Fold change vs veh, PPFIA1 / RFU, MAT2A / Fold change vs veh, MAT2A / RFU, CCT5 / Fold change vs veh, CCT5 / RFU, WDR92 / Fold change vs veh, WDR92 / RFU, CUX1 / Fold change vs veh, CUX1 / RFU, TTC7A / Fold change vs veh, TTC7A / RFU, TMEM135 / Fold change vs veh, TMEM135 / RFU, DEPTOR / Fold change vs veh, DEPTOR / RFU, CPM / Fold change vs veh, CPM / RFU, DNAJB6 / Fold change vs veh, DNAJB6 / RFU, CACNA2D3 / Fold change vs veh, CACNA2D3 / RFU, DTX4 / Fold change vs veh, DTX4 / RFU, TFCP2 / Fold change vs veh, TFCP2 / RFU, GMCL1 /// GMCL1P1 / Fold change vs veh, GMCL1 /// GMCL1P1 / RFU, AEBP2 / Fold change vs veh, AEBP2 / RFU, SNHG1 /// SNORD22 /// SNORD25 /// SNORD26 /// SNORD27 /// SNORD28 /// SNORD29 /// SNORD31 / Fold change vs veh, SNHG1 /// SNORD22 /// SNORD25 /// SNORD26 /// SNORD27 /// SNORD28 /// SNORD29 /// SNORD31 / Fold change (Aza/veh), C12orf56 (ProbeSet 11735607_a_at) / Fold change (ACY-1035/veh), C12orf56 (ProbeSet 11735607_a_at) / Fold change (Aza/veh), FGFR1OP (ProbeSet 11751329_s_at) / Fold change (ACY-1035/veh), FGFR1OP (ProbeSet 11751329_s_at) / Fold change (Aza/veh), VPS36 (ProbeSet 11739960_a_at) / Fold change (ACY-1035/veh), VPS36 (ProbeSet 11739960_a_at) / RFU SYPL1 (11715823_x_at) / Fold change /veh SYPL1 (11715823_x_at) / RFU IGFBP7 (11715501_s_at) / Fold change /veh IGFBP7 (11715501_s_at) / RFU REEP3 (11722064_at) / Fold change /veh REEP3 (11722064_at) / RFU IGLL1 (11728026_x_at) / Fold change /veh IGLL1 (11728026_x_at): dose or concentration left out as unconfirmed
Conditions: ProbeSet 11757113_a_at; LIST D

Nc1ncn([C@@H]2O[C@H](CO)[C@@H](O)[C@H]2O)c(=O)n1 [azacitidine]
Fold change vs veh, SNHG1 /// SNORD22 /// SNORD25 /// SNORD26 /// SNORD27 /// SNORD28 /// SNORD29 /// SNORD31: 0.81
